Measured values: patent publication US12559454B2, “Benzenesulfonamide derivatives and uses thereof” (2692372 Ontario, Inc., priority 2019, dated 2026)
Blank lines part the entries; values can stand above or below the compound they belong to.

Columns and labels:
[1] = test system: RL human non-Hodgkin's lymphoma B cell line; assay: Cell viability in RL cells (Table 6); format: cell-based
BTK [2] = target: T1, BTK (Homo sapiens, UniProt Q06187); assay: Selected kinase inhibition, BTK (Table 6); format: biochemical
BTK [3] = target: T1, BTK; assay: BTK washout experiment; format: biochemical; details: 6-h incubation, 50 nM BTK, 177 nM compound, 400-fold dilution; relative to DMSO
Method: After a 3-h incubation of 40 nM BTK in the presence of 296 nM of compound I-A1, a 400-fold dilution was performed to remove excess inhibitor.
After a 6-h incubation of 50 nM BTK in the presence of 280 nM of compound 3A-6, a 400-fold dilution was performed to remove excess inhibitor.
By way of contrast, a “washout” experiment performed with ARQ-531 gives a very different result, because this compound lacks a warhead and is known to inhibit BTK reversibly. After a 6-h incubation of 50 nM BTK in the presence of 177 nM of ARQ-531, a 400-fold dilution was performed to remove excess inhibitor. […] This indicates to one of ordinary skill in the art that the enzyme was not inhibited irreversibly during the incubation with ARQ-531.

[4] = Parallel artificial membrane permeability assay (PAMPA), Example C4; format: in vitro ADME; details: PBS pH 7.4, 10 μM, 16 hours
Method: Assay Procedures. […] 7) Cover with plate lid. Vortex at 750 rpm for 100 seconds. […] Determine the compound concentrations by LC/MS/MS.

[5] = test system: normal primary human fibroblast (NHF) cell lines; assay: Toxicity study, CellTiter-Blue viability in normal primary human fibroblasts (NHF); format: cell-based; details: NHF cells, 72 hrs exposure
Method: Anti-cancer efficacy of exemplary compounds of this application was assessed in vitro in different cancer cell lines. Cell viability was examined following treatment at various concentration of inhibitor (0.097656-50 μM) using a cell Titer-Blue cell viability assay. 1×10^4 cells (NHF cells)/well were plated in 96-well assay plates in culture medium. All cells were grown in DMEM, IMDM and RPMI-1640 supplemented with 10% FBS. After 24 hrs, test compounds and vehicle controls were added to appropriate wells so the final volume was 100p in each well. The cells were cultured for the desired test exposure period (72 hrs) at 37° C. and 5% CO2. The assay plates were removed from 37° C. incubator and 20 μl/well of CellTiter-Blue® Reagent was added. The plates were incubated using standard cell culture conditions for 1-4 hours and the plates were shaken for 10 seconds and record fluorescence at 560/590 nm.
Representative data for exemplary compounds against select normal primary human fibroblast (NHF) cell lines are presented in the following Table 7.

[6] = target: T2, His-tagged BTK kinase domain (Homo sapiens, UniProt Q06187); assay: Mass spectral analysis of tryptic digest of BTK kinase domain; format: binding; details: 10 μM BTK KD, 10 μM compound, 45 min; for C481 covalent modification: tryptic peptide 467-487
T2 construct: Intact His-tagged BTK kinase domain (SOURCE)(10 μM) was incubated
Method: A protein kinase that is inhibited by compound and/or pharmaceutically acceptable salt of the present disclosure may be subjected to mass spectral analysis to assess the formation of permanent, irreversible covalent adducts. […] Such methods identify permanent, irreversible covalent protein adducts by observing a mass peak that corresponds to the mass of a control sample plus the mass of an irreversible adduct.
After the incubation time, the reactions were quenched by acetone precipitation and the pellet was re-dissolved in 8 M Urea. […] The BTK protein band was then excised and subjected to an in-gel trypsin digest by reducing the protein (5 mM DTT), alkylating the thiols with iodoacetamide (15 mM), and then incubating the protein gel band with trypsin in a 37 C water bath (4 hours). The tryptic digestion was then quenched by the addition of trifluoroacetic acid, and peptides were removed from the gel band by sonicating with increasing amounts of acetonitrile (0%, 30%, & 60%). Peptides were then purified using C18 ziptips, spotted on the MALDI target plate with α-cyano-4-hydroxycinnamic acid as the desorption matrix (10 mg/mL in 0.10% TFA:Acetonitrile 50:50), and analyzed in reflectron mode.

BTK [7] = target: T1, BTK; assay: In vitro BTK inhibition (no preincubation); format: biochemical
[8] = test system: RL human non-Hodgkin's lymphoma B cell line; assay: In vitro efficacy in RL cells (Example G1); details: read-out: RL (IC50, μM)
BTK [9] = target: T1, BTK; assay: BTK irreversible inhibition, enzyme kinetic analysis; format: biochemical; details: 0.1 nM BTK, 500 μM ATP
Method: One of ordinary skill in the art will recognize that this is consistent with the irreversible inhibition of BTK by compound I-A1.
One of ordinary skill in the art will recognize that this is consistent with the irreversible inhibition of BTK by compound I-A6.
One of ordinary skill in the art will recognize that this is consistent with the irreversible inhibition of BTK by compound 3A-2.
The shift of IC50 to a lower value after pre-incubation of the enzyme indicates to one of ordinary skill in the art that a significant portion of the enzyme was inhibited irreversibly during the incubation period.

[10] = test system: normal pooled human fibroblasts; assay: Viability of normal pooled human fibroblasts (Example G1); details: Fibroblast, read-out: Human Fibroblast (IC50, μM)
JAK3 = target: T3, JAK3 (Homo sapiens, UniProt P52333); assay: In vitro JAK3 inhibition (no preincubation); format: biochemical
T3 sequence (P52333 1-1124): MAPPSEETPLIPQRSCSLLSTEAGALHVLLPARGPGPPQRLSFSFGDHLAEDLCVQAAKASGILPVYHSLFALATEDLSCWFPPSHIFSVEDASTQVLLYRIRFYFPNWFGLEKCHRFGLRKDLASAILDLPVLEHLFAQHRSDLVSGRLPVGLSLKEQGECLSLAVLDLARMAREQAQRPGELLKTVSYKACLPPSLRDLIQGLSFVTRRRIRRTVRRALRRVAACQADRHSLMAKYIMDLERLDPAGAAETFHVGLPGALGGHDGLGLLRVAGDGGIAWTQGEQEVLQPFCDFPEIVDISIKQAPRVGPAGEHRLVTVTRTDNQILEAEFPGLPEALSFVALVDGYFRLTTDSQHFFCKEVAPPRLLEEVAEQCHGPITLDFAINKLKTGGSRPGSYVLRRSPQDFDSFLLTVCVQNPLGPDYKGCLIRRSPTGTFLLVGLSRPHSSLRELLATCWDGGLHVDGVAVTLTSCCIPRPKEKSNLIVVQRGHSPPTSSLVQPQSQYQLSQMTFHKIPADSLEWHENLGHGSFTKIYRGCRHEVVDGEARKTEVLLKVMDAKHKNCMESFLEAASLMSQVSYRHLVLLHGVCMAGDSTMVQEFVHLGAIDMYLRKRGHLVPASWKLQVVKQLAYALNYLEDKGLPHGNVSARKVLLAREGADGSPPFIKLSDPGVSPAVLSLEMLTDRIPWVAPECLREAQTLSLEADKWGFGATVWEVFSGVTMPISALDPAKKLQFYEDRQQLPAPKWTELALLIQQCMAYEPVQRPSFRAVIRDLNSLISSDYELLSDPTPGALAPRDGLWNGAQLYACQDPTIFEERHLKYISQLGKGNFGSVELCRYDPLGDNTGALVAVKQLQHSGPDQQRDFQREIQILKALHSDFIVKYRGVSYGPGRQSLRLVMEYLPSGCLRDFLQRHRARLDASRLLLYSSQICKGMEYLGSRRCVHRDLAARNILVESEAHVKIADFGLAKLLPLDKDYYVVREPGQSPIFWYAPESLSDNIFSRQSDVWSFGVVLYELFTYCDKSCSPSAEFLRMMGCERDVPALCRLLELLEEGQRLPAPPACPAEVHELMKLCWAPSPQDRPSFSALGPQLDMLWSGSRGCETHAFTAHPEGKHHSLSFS
Method: In vitro BTK and JAK3 inhibition studies are shown in Table 17 and Table 18 (no preincubation).

T1 sequence (Q06187 whole entry, species assumed): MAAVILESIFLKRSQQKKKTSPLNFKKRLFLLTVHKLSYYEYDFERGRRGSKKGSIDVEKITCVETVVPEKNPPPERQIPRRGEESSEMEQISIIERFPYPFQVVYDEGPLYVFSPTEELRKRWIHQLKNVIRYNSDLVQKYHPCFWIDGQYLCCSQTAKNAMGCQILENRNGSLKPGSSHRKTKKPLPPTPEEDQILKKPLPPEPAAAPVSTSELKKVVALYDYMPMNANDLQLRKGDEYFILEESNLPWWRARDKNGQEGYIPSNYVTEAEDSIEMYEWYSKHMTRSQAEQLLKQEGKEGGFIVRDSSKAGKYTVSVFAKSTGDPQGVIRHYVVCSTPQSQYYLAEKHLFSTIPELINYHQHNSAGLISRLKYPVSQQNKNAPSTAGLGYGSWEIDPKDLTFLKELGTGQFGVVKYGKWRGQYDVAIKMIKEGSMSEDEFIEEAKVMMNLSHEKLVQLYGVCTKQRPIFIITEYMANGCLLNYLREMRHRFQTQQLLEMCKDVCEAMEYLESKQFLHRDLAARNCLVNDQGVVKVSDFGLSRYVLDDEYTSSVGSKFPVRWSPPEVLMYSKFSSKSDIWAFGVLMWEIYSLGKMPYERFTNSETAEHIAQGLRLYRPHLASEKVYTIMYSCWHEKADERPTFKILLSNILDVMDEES
T2 sequence (Q06187 402-655 limits assumed): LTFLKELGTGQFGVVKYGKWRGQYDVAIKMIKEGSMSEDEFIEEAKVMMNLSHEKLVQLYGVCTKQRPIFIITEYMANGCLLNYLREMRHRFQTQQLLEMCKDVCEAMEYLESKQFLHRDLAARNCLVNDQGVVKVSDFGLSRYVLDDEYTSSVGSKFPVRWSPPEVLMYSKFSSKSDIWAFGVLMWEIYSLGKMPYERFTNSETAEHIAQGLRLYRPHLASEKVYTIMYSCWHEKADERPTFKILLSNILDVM

−Log Pe [4]: B (>5 to ≤6)
IC50 (BTK [2]): 10 to 100 nM
Compound: Nc1ncnc2c1c(-c1ccc(Oc3ccccc3)cc1)nn2[C@@H]1CCCN(S(=O)(=O)c2cc(F)c(F)c(F)c2F)C1 [I-A4, (R)-3-(4-phenoxyphenyl)-1-(1-((2,3,4,5-tetrafluorophenyl)sulfonyl)piperidin-3-yl)-1H-pyrazolo[3,4-d]pyrimidin-4-amine]
IC50 [5]: > 25000 nM

IC50 [8]: 1 µM
IC50 (BTK [7]; Table 17): 100 to 1000 nM
−Log Pe [4]: C (>6 to ≤7)
IC50 (BTK [2]): 100 to 1000 nM
inhibition profile by enzyme kinetic analysis (BTK [9]): time-dependent inhibition
kinact (BTK [9]; saturation kinetics): 0.000671 s⁻¹
Ki (BTK [9]; saturation kinetics of irreversible inhibition): 71.3 nM
Compound: Nc1ncnc2c1c(-c1ccc(Oc3ccccc3)cc1)nn2[C@@H]1CCCN(S(=O)(=O)c2c(F)c(F)c(F)c(F)c2OC2CC2)C1 [I-A6, (R)-1-(1-((2-cyclopropoxy-3,4,5,6-tetrafluorophenyl)sulfonyl)piperidin-3-yl)-3-(4-phenoxyphenyl)-1H-pyrazolo[3,4-d]pyrimidin-4-amine]
IC50 [10]: > 25 µM
IC50 [5]: > 25000 nM

IC50 (BTK [7]; Table 18): 100 to 1000 nM
IC50 (JAK3): 1000 to 10000 nM
Compound: CN(CCNc1ncnc2[nH]ccc12)S(=O)(=O)c1c(F)c(F)c(F)c(F)c1F [Compound 3A-28, N-(2-((7H-pyrrolo[2,3-d]pyrimidin-4-yl)amino)ethyl)-2,3,4,5,6-pentafluoro-N-methylbenzenesulfonamide]

IC50 (BTK [7]; Table 18): 0.1 to 10 nM
IC50 (JAK3): 1000 to 10000 nM
Compound: O=S(=O)(NCCNc1ncnc2[nH]ccc12)c1c(F)c(F)c(F)c(F)c1F [Compound 3A-27, N-(2-((7H-pyrrolo[2,3-d]pyrimidin-4-yl)amino)ethyl)-2,3,4,5,6-pentafluorobenzene sulfonamide]

Further lines, the compound ahead of its results:

Compound: Nc1ncnc2c1c(-c1ccc(Oc3ccccc3)cc1)nn2S(=O)(=O)c1c(F)c(F)c(F)c(F)c1F [I-A3, 1-((perfluorophenyl)sulfonyl)-3-(4-phenoxyphenyl)-1H-pyrazolo[3,4-d]pyrimidin-4-amine]
IC50 [1]: 1000 to 10000 nM
IC50 (BTK [2]): 100 to 1000 nM

Compound: O=C(c1ccc(Oc2ccccc2)cc1Cl)c1c[nH]c2ncnc(N[C@@H]3CC[C@@H](CO)OC3)c12 [ARQ-531, reference compound]
residual activity of the enzyme (BTK [3]): recovered all of its activity

Compound: Nc1ncnc2c1c(-c1ccc(Oc3ccccc3)cc1)nn2[C@@H]1CCCN(S(=O)(=O)c2c(OC3CC3)c(F)c(F)c(F)c2OC2CC2)C1 [I-A7, (R)-1-(1-((2,6-dicyclopropoxy-3,4,5-trifluorophenyl)sulfonyl)piperidin-3-yl)-3-(4-phenoxyphenyl)-1H-pyrazolo[3,4-d]pyrimidin-4-amine]
−Log Pe [4]: C (>6 to ≤7)
IC50 [5]: > 25000 nM

Compound: Nc1ncnc2c1c(-c1ccc(Oc3ccccc3)cc1)nn2CCNS(=O)(=O)c1c(F)c(F)c(F)c(F)c1F [Compound 3A-9, N-[2-[4-amino-3-(4-phenoxyphenyl)pyrazolo[3,4-d]pyrimidin-1-yl]ethyl]-2,3,4,5,6-pentafluoro-benzenesulfonamide]
C481 covalent modification [6]: covalent modification and ✓
C527 covalent modification ([6]; tryptic peptide 526-536): covalent modification and ✓
IC50 (BTK [7]; Table 18): 0.1 to 10 nM

Compound: C[C@H]1CC[C@@H](Nc2ncnc3[nH]ccc23)CN1S(=O)(=O)c1c(F)c(F)c(F)c(F)c1F [Compound 3A-25, N-((3R,6S)-6-methyl-1-((perfluorophenyl)sulfonyl)piperidin-3-yl)-7H-pyrrolo[2,3-d]pyrimidin-4-amine]
IC50 (JAK3): 1000 to 10000 nM

Compound: COCCOc1ccc(Nc2ncc(F)c(Nc3ccc(NS(=O)(=O)c4c(F)c(F)c(F)c(F)c4F)cc3)n2)cc1 [Compound 3A-38, 2,3,4,5,6-pentafluoro-N-(4-((5-fluoro-2-((4-(2-methoxyethoxy)phenyl)amino)pyrimidin-4-yl)amino)phenyl)benzenesulfonamide]
C481 covalent modification [6]: covalent modification and ✓

Compound: Nc1ncnc2c1c(-c1ccc(Oc3ccccc3)cc1)nn2[C@H]1CCCN(S(=O)(=O)c2c(F)c(F)c(F)c(F)c2F)C1 [I-A2, (S)-1-(1-((perfluorophenyl)sulfonyl)piperidin-3-yl)-3-(4-phenoxyphenyl)-1H-pyrazolo[3,4-d]pyrimidin-4-amine]
IC50 [1]: 1000 to 10000 nM
IC50 (BTK [2]): 100 to 1000 nM
IC50 [5]: 1000 to 10000 nM

Compound: C=CC(=O)N1CCC[C@@H](n2nc(-c3ccc(Oc4ccccc4)cc3)c3c(N)ncnc32)C1 [Ibrutinib, reference compound]
IC50 [1]: 10000 to 30000 nM
IC50 [8]: 10.3 µM
IC50 [10]: 26.8 µM
IC50 [5]: 10000 to 25000 nM
